Among the data in ChEMBL document CHEMBL1158793, “Taxezopidines M and N, taxoids from the Japanese yew, Taxus cuspidata” (J Nat Prod, 2005) are Activity values, retold here.

SMILES strings stand for the structures. Calls of active or inactive are those of the source. The calls are words filed in the database; no cut-off is given here.

One experiment deals with L1210. Nature of the experiment: Cytotoxicity against mouse L1210 cells at 10 ug/ml. Type of experiment: functional, cell-based.
Another experiment has as its system KB. Description: Cytotoxicity against human KB cells at 10 ug/ml. Format: functional, cell-based.
Experiment [1] can be described thus: Inhibition of CaCl2-induced microtubule depolymerization at 5 uM by spectrophotometry.
A short description of experiment [2]: Inhibition of CaCl2-microtubule depolymerization at 50 uM by spectrophotometry.

As to `C=C1[C@@H](OC(=O)C[C@H](c2ccccc2)N(C)C)C[C@H](OC(C)=O)[C@@]2(C)[C@@H](OC(C)=O)[C@H](OC(C)=O)[C@]3(O)[C@@]4(C)CO[C@]3(C)C(=O)C[C@H]4[C@@H](OC(C)=O)[C@H]12`, the result in the experiment with L1210 and in the experiment with KB was inactive.
Regarding `CC(=O)O[C@H]1C(=O)[C@@]2(C)[C@H]([C@H](OC(=O)c3ccccc3)[C@]3(O)C[C@H](OC(=O)[C@H](O)[C@@H](NC(=O)c4ccccc4)c4ccccc4)C(C)=C1C3(C)C)[C@]1(OC(C)=O)CO[C@@H]1C[C@@H]2O`, the result in experiment [1] was Active.
Turning to `C=C1[C@@H](OC(=O)C[C@H](c2ccccc2)N(C)C)CC[C@@]2(C)[C@@H](OC(C)=O)[C@H](OC(C)=O)C3=C(C)[C@]4(O)C[C@@H]([C@@H](OC(C)=O)[C@H]12)[C@@]3(C)CO4`, the outcome in the experiment with L1210 and in the experiment on KB was inactive. Moreover, the result in experiment [2] was Active.
